The values that follow come from patent US7772425B2, “Vitamin D receptor modulators” (Eli Lilly and Company, priority 2002, dated 2010).

Series [1] deals with KERtr cells (Human skin keratinocyte). The experiment in a line: Keratinocyte proliferation assay. The series is classed as cell-based. Conditions: BrdU incorporation, read-out: Kera. Prolif. IC50. Here is the method: 5. The Keratinocyte Proliferation Assay
This Assay is indicative for the treatment of psoriasis.
(5) The Keratinocyte Proliferation Assay:
KERtr cells (Human skin keratinocyte transformed with a retrovirus vector, obtained from ATCC) were plated in 96-well flat-bottomed plates (3000 cells/well) in 100 μl keratinocyte serum free medium supplemented with bovine pituitary extract in the absence of EGF (Life Technologies, Rockville, Md.) and incubated at 37° C. for two days. The cells were treated with various concentrations of VDR ligands (ten-fold serial dilution from 10,000 nM to 0.1 nM in triplicate), dissolved in 100 μl keratinocyte serum free medium supplemented with bovine pituitary extract in the absence of EGF and incubated at 37° C. for 72 hr. BrdU (5-bromo-2′-deoxyuridine) incorporation was analyzed as a measure of DNA replication (Cell proliferation ELISA kit, Roche Diagnostics, Indianapolis, Ind.) and absorbance was measured at 405 nm. Potency values (IC50) values were determined as the concentration (nM) of compound that elicited a half-maximal response.

The next series deals with female DBF mice. Put plainly: Mouse hypercalcemia assay. The series is classed as in vivo. Conditions: orally via gavage for 6 days; serum ionized calcium 6 hours after last dosing. The source says:
4. The Mouse Hypercalcemia Assay
(4) Materials and Method for The Mouse Hypercalcemia Assay: […]

A further series relates to rat osteocalcin promoter. Put plainly: OCN (osteocalcin) promoter assay in RG-15 (ROS 17/2.8) cells. In kind it is cell-based. Conditions: 48 hr treatment, luciferase. How it is done: 3. The OCN (Osteocalcin) Promoter Assay
The OCN Promoter Assay is an indicator and marker for osteoporosis. […] Preferred assay results are less than 50 nM.
(3) Materials and Method for The OCN Promoter Assay:
The activation of osteocalcin by VDR ligands was evaluated in a rat osteoblast-like cell line RG-15 (ROS 17/2.8) stably expressing rat osteocalcin promoter fused with luciferase reporter gene. […] Confluent RG-15 cells maintained in DMEM/F-12 medium (3:1) containing 5% FBS, 300 μg/ml G418 and at 37° C. under 5% CO2/95% air atmosphere were trypsinized (0.25% trypsin) and plated into white opaque 96-well cell culture plates (25000 cells/well). After 24 hr, cells (in DMEM/F-12 medium+2% FBS) were treated with various concentrations of compounds, dissolved in DMSO. The final DMSO concentration remained at 0.01% (v/v). After 48 hr treatment, the medium was removed, cells were lysed with 50 μl of lysis buffer (From Luciferase reporter assay system, Roche Diagnostics, Indianapolis, Ind.) and assayed for luciferase activity using the Luciferase Reporter Gene Assay kit from Boehringer Mannheim as per manufacturer's specifications.

The next series concerns IL-10. Put plainly: human IL-10 induction assay in PBMCs. In kind it is cell-based. Conditions: TPA/PHA treated human PBMCs, IL-10 immunoassay of supernatant. The source says: The evaluation of the novel compounds of the invention for psoriasis is done using the Keratinocyte Proliferation Assay in combination with other assays that measure inhibition of IL-2 production and stimulation of IL-10 production in peripheral blood mononuclear cells (PBMCs).
6. The IL-10 Induction Assay
This is an in vitro efficacy assay for psoriasis, abscess and adhesion. Psoriasis involves both keratinocytes and immune cells. IL-10 is a unique cytokine because it is anti-inflammatory and immunosuppressive. This assay tells us whether a VDRM is able to function as an agonist in PBMCs (primary blood mononuclear cells) or not. A lower EC50 value is desirable in this assay since a compound with a lower EC50 value will be a better agonist in PBMCs.
(6) Materials and Method for human IL-10 Induction Assay:
Isolation of peripheral blood mononuclear cells (PBMCs):
• A. Collect 50 ml of human blood and dilute with media, RPMI-1640. • B. Prepare sterile tubes with ficol. • C. Add diluted blood to tubes. • D. Centrifuge. • E. Discard the top layer and collect the cells from middle layer. • F. Divide all cells into four tubes and add media. • G. Centrifuge. • H. Aspirate off media and resuspend. • I. Collect all cells • J. Centrifuge. at 1200 rpm for 10 minutes. • K. Resuspend in RPMI-1640 with 2% FBS and count cells Stimulation of PBMC: • L. Prepare TPA in DMSO. • M. Dissolve PHA in water. • N. Plate TPA/PHA treated PBMCs in well plates. • O. Incubate. Treatment: • P. Prepare all compound dilutions in plain RPMI-1640 media. • Q. Add diluted compound. • R. Incubate. Sample Collection and assay: • S. Remove all the cells by centrifugation and assay the supernatant for IL-10 by immunoassay. • 1) T. Perform IL-10 assay using anti-human IL-10 antibody coated beads, as described by the manufacturer (Linco Research Inc., St. Charles, Mo.).

[2] abbreviates: Homo sapiens, Keratinocyte, 72 h.

Structures are written as SMILES. “And” between values parts separate entries of the source, which are not always exact repeats. Equal entries are not always repeated. Where two headings read alike, the source gives them in different places.

Regarding `CCC(CC)(c1ccc(OC(C)C(O)C(C)(C)C)c(C)c1)c1ccc(C(=O)O)c(C)c1` (single isomer, unassigned) [Ex. 11, 3′-[4-(2-hydroxy-1,3,3-trimethylbutoxy)-3-methylphenyl]-3′-[4-carboxyl-3-methylphenyl]pentane], the IC50 in series [1] (setting [2]) turned out to be 308 nM; with IL-10 (Homo sapiens, PBMC), 478 nM. Also, the “Mouse Hypercal” value in the series on female DBF mice is 3000 µg/kg/day. Also, the EC50 in the series with rat osteocalcin promoter is 7 nM.
The corresponding values for `CCC(CC)(c1ccc(OCC(O)C(C)(C)C)c(C)c1)c1ccc(C(=O)Nc2nnn[nH]2)c(C)c1` (single isomer, unassigned) [Ex. 12a, 3′-[4-(2-hydroxy-3,3-dimethylbutoxy)-3-methylphenyl]-3′-[4-(tetrazol-5-ylaminocarbonyl)-3-methylphenyl]pentane] are 4 nM, 52 nM, 300 µg/kg/day and 1 nM.
Regarding `CCC(CC)(c1ccc(OCC(O)C(C)(C)C)c(C)c1)c1ccc(C(=O)N(C)CC(=O)O)c(C)c1` (single isomer, unassigned) [Ex. 18, [(4-{1-ethyl-1-[4-(2-hydroxy-3,3-dimethyl-butoxy)-3-methyl-phenyl]-propyl}-2-methyl-benzoyl)-methyl-amino]-acetic acid], the values for the half-inhibitory concentration (IC50) (in series [1] (72 hr); with IL-10) were 1000 nM and 47 nM, respectively. The “Mouse Hypercal” value in the series on female DBF mice is 1000 µg/kg/day.
As to `CCC(CC)(c1ccc(OCC(O)C(C)(C)C)c(C)c1)c1ccc(C(=O)N(C)CC(=O)O)c(C)c1` (single isomer, unassigned) [Ex. 19, [(4-{1-Ethyl-1-[4-(2-hydroxy-3,3-dimethyl-butoxy)-3-methyl-phenyl]-propyl}-2-methyl-benzoyl)-methyl-amino]-acetic acid], the IC50 in series [1] (72 hr) came out at 82 nM; in the series with IL-10, 142 nM. In addition, in the series with female DBF mice, the “Mouse Hypercal” value was 2000 µg/kg/day. In addition, in the series with rat osteocalcin promoter, the EC50 is 12 nM and 16 nM.
Regarding `CCC(CC)(c1ccc(OCC(O)C(C)(C)C)c(C)c1)c1ccc(C(=O)NC(C)(C)C(=O)O)c(C)c1` (single isomer, unassigned) [Ex. 20B, 2-(4-{1-Ethyl-1-[4-(2-hydroxy-3,3-dimethyl-butoxy)-3-methyl-phenyl]-propyl}-2-methyl-benzoylamino)-2-methyl-propionic acid], the IC50 amounted to 3 nM in series [1] (setting [2]) and 4 nM in the series on IL-10 (Homo sapiens, PBMC). In addition, in the series on female DBF mice, the “Mouse Hypercal” value is 300 µg/kg/day.
Take `CCC(CC)(c1ccc(C(=O)O)cc1)c1ccc(OCC(O)C(C)(C)C)c(C)c1` (single isomer, unassigned) [Ex. 22, 4-{1-Ethyl-1-[4-(2-hydroxy-3,3-dimethylbutoxy)-3-methylphenyl]-propyl}benzoic acid]: the IC50 stood at 4 nM in series [1] (72 hr) and 39 nM with IL-10 (Homo sapiens, PBMC). Besides, in the series on female DBF mice, the “Mouse Hypercal” value was 1000 µg/kg/day.
Regarding `CCC(CC)(c1ccc(C(=O)O)cc1)c1ccc(OCC(O)C(C)(C)C)c(C)c1` (single isomer, unassigned) [Ex. 23, 4-{1-Ethyl-1-[4-(2-hydroxy-3,3-dimethylbutoxy)-3-methylphenyl]-propyl}benzoic acid], the figures for the half-maximal inhibitory concentration (IC50) (in series [1] (72 hr); in the series with IL-10) were 40 nM and 27 nM, respectively. In addition, the “Mouse Hypercal” value with female DBF mice is 3000 µg/kg/day.
Consider `CCC(CC)(c1ccc(OCC(O)C(C)(C)C)c(C)c1)c1ccc(C(=O)NCC(=O)O)c(C)c1` (single isomer, unassigned) [Ex. 25A, (4-{1-ethyl-1-[4-(2-hydroxy-3,3-dimethylbutoxy)-3-methylphenyl]-propyl}-2-methylbenzoylamino)acetic acid], for which the IC50 is 1100 nM in series [1] (72 hr) and 40 nM in the series with IL-10. Besides, in the series on female DBF mice, the “Mouse Hypercal” value is under 300 µg/kg/day. Moreover, the EC50 in the series on rat osteocalcin promoter was found to be 0.4 nM.
Consider `CCC(CC)(c1ccc(OCC(O)C(C)(C)C)c(C)c1)c1ccc(C(=O)NCC(=O)O)c(C)c1` (single isomer, unassigned) [Ex. 25B, (4-{1-ethyl-1-[4-(2-hydroxy-3,3-dimethylbutoxy)-3-methylphenyl]-propyl}-2-methylbenzoylamino)acetic acid], for which the IC50 in series [1] (72 hr) is 26 nM; in the series with IL-10, 158 nM. In the series on female DBF mice, the “Mouse Hypercal” value was 1000 µg/kg/day. The EC50 in the series on rat osteocalcin promoter was 2 nM and 3 nM.
Turning to `CCC(CC)(c1ccc(OC(C)C(O)C(C)(C)C)c(C)c1)c1ccc(C(=O)Nc2nnn[nH]2)c(C)c1` (single isomer, unassigned) [Ex. 29, 3′-[4-(2-hydroxy-1,3,3-trimethylbutoxy)-3-methylphenyl]-3′-[4-(tetrazol-5-ylaminocarbonyl)-3-methylphenyl]pentane], the half-maximal inhibitory concentration (IC50) turned out to be 49 nM in series [1] (72 hr) and 153 nM in the series with IL-10 (Homo sapiens, PBMC). In the series on female DBF mice, the “Mouse Hypercal” value was 3000 µg/kg/day.
As for `CCC(CC)(c1ccc(OC(C)C(O)C(C)(C)C)c(C)c1)c1ccc(C(=O)Nc2nnn[nH]2)c(C)c1` (single isomer, unassigned) [Ex. 30, 3′-[4-(2-hydroxy-1,3,3-trimethylbutoxy)-3-methylphenyl]-3′-[4-(tetrazol-5-ylaminocarbonyl)-3-methylphenyl]pentane], the IC50 in series [1] (72 hr) is 20 nM; in the series with IL-10, 123 nM. Besides, the “Mouse Hypercal” value in the series on female DBF mice is 1000 µg/kg/day.
The corresponding values for `CCC(CC)(c1ccc(OC(C)C(O)C(C)(C)C)c(C)c1)c1ccc(C(=O)NCC(=O)O)c(C)c1` (single isomer, unassigned) [Ex. 32, 3′-[4-(2-hydroxy-1,3,3-trimethylbutoxy)-3-methylphenyl]-3′-[4-(carboxymethylaminocarbonyl)-3-methylphenyl]pentane] are 1000 nM, 106 nM and 1000 µg/kg/day.
`CCC(CC)(c1ccc(COCC(=O)O)c(C)c1)c1ccc(OCC(O)C(C)(C)C)c(C)c1` (single isomer, unassigned) [Ex. 33, (4-{1-ethyl-1-[4-(2-hydroxy-3,3-dimethyl-butoxy)-3-methyl-phenyl]-propyl}-2-methyl-benzyloxy)-acetic acid]: the half-inhibitory concentration (IC50) is 6 nM in series [1] (setting [2]) and 19 nM in the series with IL-10 (Homo sapiens, PBMC). The “Mouse Hypercal” value in the series on female DBF mice is under 300 µg/kg/day.
Regarding `CCC(CC)(c1ccc(C(=O)O)cc1)c1ccc(OCC(=O)C(C)(C)C)c(C)c1` [Ex. 21, 4-{1-[4-(3,3-Dimethyl-2-oxo-butoxy)-3-methyl-phenyl]-1-ethyl-propyl}-benzoic acid], the IC50 in series [1] (setting [2]) came to 223 nM; with IL-10 (Homo sapiens, PBMC), 1050 nM. Further, the “Mouse Hypercal” value in the series on female DBF mice is 6000 µg/kg/day.
On to `CCC(CC)(c1ccc(OCC(O)C(C)(C)C)c(C)c1)c1ccc(C(=O)N[C@H](C)C(=O)O)c(C)c1` (stereo partly drawn) [Ex. 34, D-2-(4-{1-ethyl-1-[4-(2-hydroxy-3,3-dimethyl-butoxy)-3-methyl-phenyl]-propyl}-2-methyl-benzoylamino)-propionic acid], for which the half-inhibitory concentration (IC50) was 25 nM in series [1] (setting [2]) and 45 nM with IL-10 (Homo sapiens, PBMC). The “Mouse Hypercal” value with female DBF mice is under 300 µg/kg/day.
